Laboratory results from patent publication US12661345B2, “Compositions for the treatment of hypertension” (The George Institute for Global Health, priority 2017, dated 2026).

Tested on: participants with migraine
Test: Office blood pressure in 12-week double blind randomized 3×3 factorial trial
Assay type: in vivo, human
Experimental: There was a 4 week screening period and another 4-week post study drug observational period.
There was a 4-week screening period and another 4-week post study drug observational period.
Group 2 received the low-dose BP lowering combination and simvastatin (i.e., telmisartan 20 mg+amlodipine 2.5 mg+simvastatin). Group 3 received the low-dose BP lowering combination and placebo (i.e., telmisartan 20 mg+amlodipine 2.5 mg+placebo). […] Group 9 received double placebo.
Office BP was measured following the recommendations of the Australian National Heart Foundation. Participants were rested in the seated position for 5 minutes, an appropriate cuff size was selected and 3 measurements of BP were recorded using an Omron HEM907 monitor or equivalent validated automated digital BP monitor. Principles of automated office BP measurements were applied whereby the patient was left alone during BP recording.
All analyses of study outcomes were conducted according to the principle of intention-to-treat. The analyses of continuous outcomes such SBP and LDL-cholesterol at 12 weeks was performed using ANCOVA including the treatment arm and baseline values as a covariate. Additional analyses included interim measurements in a longitudinal model including treatment arm, visit, and treatment by visit interaction as well as the baseline measurement. Within-patient correlations were modelled using generalized estimating equations. A similar approach was applied to binary endpoints with log-binomial regression used in place of linear regression. There were also pre-defined subgroup analyses, baseline BP, baseline LDL, gender and age.

[1] = Week 12, BP arm versus placebo, interval in brackets
[2] = Week 16 (after 4-week post study drug period)
[3] = Week 16, BP arm versus placebo, interval in brackets
[4] = overall line, BP arm versus placebo, interval in brackets, footnote # not given

Compound: CC(C)NCC(O)COc1cccc2ccccc12 (centres unmarked) [Propranolol, propranolol]
- Systolic Blood Pressure, Change from Baseline, min (Week 8): −30
- Diastolic Blood Pressure Mean difference (Week 8, BP arm versus placebo, interval in brackets): −3.67 (−10.23, 2.90) mmHg
- Diastolic Blood Pressure, Change from Baseline, Mean difference (Week 8, interval in brackets): −7.67 (−12.92, −2.41)
- Systolic Blood Pressure, Change from Baseline, Mean difference (Week 8, interval in brackets): −7.30 (−17.13, 2.53)
- Diastolic Blood Pressure, Change from Baseline, Mean (SD) (Week 12): 10 −10.5 (6.44)
- Diastolic Blood Pressure, Change from Baseline, Q1 (Week 12): −16.7
- Diastolic Blood Pressure, Change from Baseline, Q2 (Week 12): −9.3
- Diastolic Blood Pressure, Change from Baseline, Q3 (Week 12): −4.3
- Diastolic Blood Pressure, Change from Baseline, max (Week 12): −3
- Diastolic Blood Pressure, Change from Baseline, min (Week 12): −22
- Systolic Blood Pressure, Change from Baseline, Mean (SD) (Week 12): 10 −10.9 (10.07)
- Systolic Blood Pressure, Change from Baseline, Q1 (Week 12): −17.0
- Systolic Blood Pressure, Change from Baseline, Q2 (Week 12): −12.8
- Systolic Blood Pressure, Change from Baseline, Q3 (Week 12): −4.0
- Systolic Blood Pressure, Change from Baseline, max (Week 12): 5
- Systolic Blood Pressure, Change from Baseline, min (Week 12): −30
- Diastolic Blood Pressure Mean (SD) (Week 12 (end of treatment)): 10 74.6 (15.07) mmHg
- Diastolic Blood Pressure Q1 (Week 12 (end of treatment)): 60.7 mmHg
- Diastolic Blood Pressure Q2 (Week 12 (end of treatment)): 70.0 mmHg
- Diastolic Blood Pressure Q3 (Week 12 (end of treatment)): 85.7 mmHg
- Diastolic Blood Pressure max (Week 12 (end of treatment)): 97 mmHg
- Diastolic Blood Pressure min (Week 12 (end of treatment)): 54 mmHg
- Systolic Blood Pressure Mean (SD) (Week 12 (end of treatment)): 10 119.5 (17.83) mmHg
- Systolic Blood Pressure Q2 (Week 12 (end of treatment)): 117.5 mmHg
- Systolic Blood Pressure Q3 (Week 12 (end of treatment)): 135.3 mmHg
- Systolic Blood Pressure max (Week 12 (end of treatment)): 145 mmHg
- Systolic Blood Pressure min (Week 12 (end of treatment)): 88 mmHg
- Diastolic Blood Pressure Mean difference [1]: −3.50 (−14.77, 7.77) mmHg
- Systolic Blood Pressure Mean difference [1]: −1.77 (−14.87, 11.34) mmHg
- Diastolic Blood Pressure, Change from Baseline, Mean difference (Week 12, interval in brackets): −7.50 (−13.65, −1.35)
- Systolic Blood Pressure, Change from Baseline, Mean difference (Week 12, interval in brackets): −8.40 (−16.80, −0.00)
- Change in DBP from baseline to 12 weeks Mean (SD) (Week 12 v/s Baseline): 10 −10.5 (6.44) mmHg
- Change in DBP from baseline to 12 weeks Q1 (Week 12 v/s Baseline): −16.7 mmHg
- Change in DBP from baseline to 12 weeks Q2 (Week 12 v/s Baseline): −9.3 mmHg
- Change in DBP from baseline to 12 weeks Q3 (Week 12 v/s Baseline): −4.3 mmHg
- Change in DBP from baseline to 12 weeks max (Week 12 v/s Baseline): −3 mmHg
- Change in DBP from baseline to 12 weeks min (Week 12 v/s Baseline): −22 mmHg
- Change in SBP from baseline to 12 weeks Mean (SD) (Week 12 v/s Baseline): 10 −10.9 (10.07) mmHg
- Change in SBP from baseline to 12 weeks Q1 (Week 12 v/s Baseline): −17.0 mmHg
- Change in SBP from baseline to 12 weeks Q2 (Week 12 v/s Baseline): −12.8 mmHg
- Change in SBP from baseline to 12 weeks Q3 (Week 12 v/s Baseline): −4.0 mmHg
- Change in SBP from baseline to 12 weeks max (Week 12 v/s Baseline): 5 mmHg
- Change in SBP from baseline to 12 weeks min (Week 12 v/s Baseline): −30 mmHg
- Diastolic Blood Pressure, Change from Baseline, Mean (SD) (Week 16): 9 −3.9 (4.82)
- Diastolic Blood Pressure, Change from Baseline, Q1 (Week 16): −7.7
- Diastolic Blood Pressure, Change from Baseline, Q2 (Week 16): −2.7
- Diastolic Blood Pressure, Change from Baseline, Q3 (Week 16): −0.7
- Diastolic Blood Pressure, Change from Baseline, max (Week 16): 4
- Diastolic Blood Pressure, Change from Baseline, min (Week 16): −11
- Systolic Blood Pressure, Change from Baseline, Mean (SD) (Week 16): 9 −2.3 (5.95)
- Systolic Blood Pressure, Change from Baseline, Q1 (Week 16): −6.3
- Systolic Blood Pressure, Change from Baseline, Q2 (Week 16): −3.3
- Systolic Blood Pressure, Change from Baseline, Q3 (Week 16): 2.3
- Systolic Blood Pressure, Change from Baseline, max (Week 16): 6
- Systolic Blood Pressure, Change from Baseline, min (Week 16): −11
- Diastolic Blood Pressure Mean (SD) [2]: 9 82.0 (11.14) mmHg
- Diastolic Blood Pressure Q1 [2]: 73.3 mmHg
- Diastolic Blood Pressure Q2 [2]: 82.3 mmHg
- Diastolic Blood Pressure Q3 [2]: 87.3 mmHg
- Diastolic Blood Pressure min [2]: 70 mmHg
- Systolic Blood Pressure Mean (SD) [2]: 9 129.6 (15.12) mmHg
- Systolic Blood Pressure Q1 [2]: 119.7 mmHg
- Systolic Blood Pressure Q2 [2]: 129.3 mmHg
- Systolic Blood Pressure Q3 [2]: 136.7 mmHg
- Systolic Blood Pressure max [2]: 159 mmHg
- Diastolic Blood Pressure Mean difference [3]: 0.97 (−7.91, 9.85) mmHg
- Systolic Blood Pressure Mean difference [3]: 8.19 (−2.91, 19.28) mmHg
- Diastolic Blood Pressure, Change from Baseline, Mean difference (Week 16, interval in brackets): −3.93 (−9.96, 2.11)
- Systolic Blood Pressure, Change from Baseline, Mean difference (Week 16, interval in brackets): 0.10 (−6.97, 7.17)
- Diastolic Blood Pressure # Mean difference [4]: −3.57 (−11.29, 4.16) mmHg
- Systolic Blood Pressure # Mean difference [4]: −1.68 (−12.28, 8.92) mmHg
